Laboratory results taken from US20230134377A1, “INSECT-REPELLENT PERSONAL-CARE COMPOSITION” (priority 2021, published 2023).

What was measured:
[1] = crystallization / phase stability of fatty acids in the MCT composition; type: physicochemical
Description: The first issue was one of phase stability, i.e., with higher levels of C12 fatty acid, the fatty acid precipitates out of the MCT matrix when essential oils are also present, leaving just the essential oils and the MCT carrier in solution.
The MCT as a dilutant at high enough percentage by weight in the composition prevents undesirable crystallization down to about 45-50° F. (with only C10 fatty acid, the composition is stable to about 12% concentration in the formula and with only C12 fatty acid, the composition is stable up to about 7%). It was also determined that the combination of either C8 or C10 with the C12 in a ratio of 1:4 or greater results in no undesirable crystallization.
A 100% substitution of the MCT with these yielded a clear product at cooler temperatures. […] Other co-solvents recognized by the present disclosure as useful in preventing crystallization of fatty acids from the composition include alcohols such as methanol, ethanol, propanol, and isopropanol. However, as indicated earlier, these alcohols are drying to the skin and should be avoided, if at all possible, in skin-care type repellent formulas.

[2] = system: mosquito, biting fly, tick; experiment: repellent behaviour of C12 fatty acid on treated skin; type: in vivo; settings: insect will land but not bite on treated skin
[3] = 100% substitution of the MCT, cooler temperatures

Row | SMILES | effect of co-solvent on crystallization when added to the composition [1] | appearance after substitution of the MCT by the co-solvent ([1]; 25% substitution level) | appearance after substitution of the MCT by the co-solvent [1, 3] | concentration in the formula up to which the composition is stable (no crystallization) ([1]; only this fatty acid, in MCT as dilutant) | solubility in MCTs ([1]; without essential oils) | type of repellency [2]
1 | CCCCCCCCCC(=O)OC [methyl decanoate] | limit crystallization | significant benefit but not to the total clarity | clear product |  |  | 
2 | CCCCCCCCCCCC(=O)O [C12 fatty acid, lauric acid] |  |  |  | about 7% | completely soluble | close-proximity or contact repellent
3 | CCCCCCCCCCCCCC(=O)OC(C)C [isopropyl myristate] | limit crystallization | significant benefit but not to the total clarity | clear product |  |  | 
